From patent US20250263436A1, “BROAD-SPECTRUM ANTIVIRAL DRUG FOR ENTEROVIRUS, AND APPLICATION” (WUHAN INSTITUTE OF VIROLOGY, CHINESE ACADEMY OF SCIENCES, priority 2020, published 2025)
Where “and” joins values, the source holds several entries; their conditions need not be identical. Equal values may be shown once. Where no end group is shown, it is not given here.

Tested on: EV71
Assay: Inhibitory activity on EV71 in RD cells by CCK8 method
Type: cell-based, enterovirus 71 (EV71)
Conditions: for IC50: EV71 in RD cells, CCK8 method; for Inhibition rate on EV71 virus (%): RD cells, 0.1 MOI, 24 h, CCK8
Protocol: (1) RD cells were plated in a 96-well plate at 100 μL per well.
(2) When the cells grew to a confluence of 70%-80%, the DMEM medium containing 10% serum was replaced with a DMEM medium containing 2% serum.
(§1) (3) The polypeptide drug was gradiently diluted with the DMEM containing 2% FBS into concentrations of 0.15625 μM, 0.3125 μM, 0.625 μM, 1.25 μM, 2.5 μM, and 5 μM, and then added to a new 96-well plate at 100 μL per well, with 3 replicate wells for each concentration.
(4) The diluted virus was added to the above wells at 100 μL per well. The wells with no drug and no virus added and the wells with no drug but virus added were set as controls respectively, with a final concentration of virus of 0.1 MOI.
(4) The mixture was transferred into the 96-well plate plated with cells for another 24 h of culture, and the inhibitory activity of the polypeptide on the virus was determined by a CCK8 kit.
(5) The inhibition rates of different concentrations of the polypeptides on virus infection were calculated according to a calculation formula of: inhibition rate of polypeptide=(well with drug-well with virus)×100%/(well with no drug-well with virus).
as §1, with “concentration. (4) The diluted virus was added to the above wells at 100 μL per well. The wells with no drug and no virus added and the wells with no drug but virus added were set as controls respectively, with a final concentration of virus of 0.1 MOI.” for “concentration.”

Molecule	IC50	Inhibition rate on EV71 virus (%) (polypeptide 0.15625 μM)	Inhibition rate on EV71 virus (%) (polypeptide 0.3125 μM)	Inhibition rate on EV71 virus (%) (polypeptide 0.625 μM)	Inhibition rate on EV71 virus (%) (polypeptide 1.25 μM)	Inhibition rate on EV71 virus (%) (polypeptide 2.5 μM)	Inhibition rate on EV71 virus (%) (polypeptide 5 μM)
CC[C@H](C)[C@H](NC(=O)[C@H](C)NC(=O)[C@H](CO)NC(=O)[C@H](CCCNC(=N)N)NC(=O)[C@H](CC(N)=O)NC(=O)[C@H](CC(N)=O)NC(=O)[C@H](Cc1ccc(O)cc1)NC(=O)CNC(=O)[C@H](CO)NC(=O)CNC(=O)[C@H](CCCNC(=N)N)NC(=O)[C@H](CCCNC(=N)N)NC(=O)[C@H](CCCNC(=N)N)NC(=O)[C@H](CCC(N)=O)NC(=O)[C@H](CCCNC(=N)N)NC(=O)[C@H](CCCNC(=N)N)NC(=O)[C@H](CCCCN)NC(=O)[C@H](CCCCN)NC(=O)[C@H](CCCNC(=N)N)NC(=O)CNC(=O)[C@@H](N)Cc1ccc(O)cc1)C(=O)NCC(=O)N[C@@H](CC(N)=O)C(=O)N[C@H](C(=O)N[C@H](C(=O)N[C@@H](CCC(=O)O)C(=O)N[C@@H](C)C(=O)N[C@@H](CC(C)C)C(=O)N[C@@H](Cc1ccccc1)C(=O)N[C@@H](CCC(N)=O)C(=O)O)[C@@H](C)CC)[C@@H](C)O [YQ]	1.96 µM	5.8298% and 7.33% and 11.0089%	15.102% and 10.7124% and 13.3881%	23.6157% and 20.9642% and 29.1606%	30.9365% and 28.1124% and 32.0401%	62.0331% and 53.8159% and 52.1987%	80.0886% and 71.2711% and 87.578%
CC[C@H](C)[C@H](NC(=O)[C@H](C)NC(=O)[C@H](CO)NC(=O)[C@H](CCCNC(=N)N)NC(=O)[C@H](CC(N)=O)NC(=O)[C@H](CC(N)=O)NC(=O)CNC(=O)[C@H](CO)NC(=O)CNC(=O)[C@H](CCCNC(=N)N)NC(=O)[C@H](CCCNC(=N)N)NC(=O)[C@H](CCCNC(=N)N)NC(=O)[C@H](CCC(N)=O)NC(=O)[C@H](CCCNC(=N)N)NC(=O)[C@H](CCCNC(=N)N)NC(=O)[C@H](CCCCN)NC(=O)[C@H](CCCCN)NC(=O)[C@H](CCCNC(=N)N)NC(=O)CNC(=O)[C@@H](N)Cc1ccc(O)cc1)C(=O)NCC(=O)N[C@@H](CC(N)=O)C(=O)N[C@H](C(=O)N[C@H](C(=O)N[C@@H](CCC(=O)O)C(=O)N[C@@H](C)C(=O)N[C@@H](CC(C)C)C(=O)N[C@@H](Cc1ccccc1)C(=O)N[C@@H](CCC(N)=O)C(=O)O)[C@@H](C)CC)[C@@H](C)O [NQ]	1.9 µM	4.278% and 5.368% and 8.337%	11.5056% and 17.809% and 19.7228%	16.7886% and 21.2091% and 24.9365%	41.6538% and 40.8779% and 50.5607%	51.933% and 60.1502% and 57.7744%	60.6122% and 74.6708% and 75.3331%
YGRKKRRQRRRGSGTIEALFQ [TQ]	1.76 µM	3.314% and 5.356% and 7.23%		33.3736% and 28.4011% and 30.3085%	35.3209% and 40.3898% and 46.2471%	59.3508% and 67.3559% and 55.2235%	71.3029% and 65.3559% and 69.2301%
YGRKKRRQRRRGSGIEALFQ [IEQ]	2.48 µM	11.724% and 8.44% and 7.627%	18.8643% and 15.5487% and 10.6223%	20.7161% and 25.7224% and 19.5166%	33.6936% and 35.484% and 28.4286%	45.6995% and 48.4526% and 57.4377%	69.4739% and 61.3527% and 68.272%
YGRKKRRQRRRGSGGNTIEALFQ [GQ]	1.78 µM	7.219% and 10.3851% and 5.4678%	14.8883% and 12.0678% and 14.91%	28.8333% and 30.5125% and 26.48%	43.1263% and 40.6161% and 31.07%	51.8367% and 58.9472% and 57.2507%	71.5094% and 77.9438% and 84.7439%
YGRKKRRQRRRGSGIGNTIEALFQ [IQ]	1.64 µM	12.0331% and 13.5849% and 7.368%	18.7401% and 22.4297% and 22.9573%	26.0539% and 31.1744% and 34.8606%	41.6022% and 42.578% and 47.4848%	55.7952% and 50.9781% and 60.5503%	73.2884% and 68.7332% and 83.2884%
YGRKKRRQRRRGSGAIGNTIEALFQ [AQ]	2.99 µM	9.888% and 7.506% and 5.9715%	15.9607% and 11.702% and 12.6022%	26.3573% and 23.7158% and 19.5264%	33.3847% and 31.7366% and 38.7678%	58.9642% and 46.161% and 41.3092%	51.0435% and 51.8675% and 69.1952%
CC[C@H](C)[C@H](NC(=O)[C@H](C)NC(=O)[C@H](CO)NC(=O)[C@H](CCCNC(=N)N)NC(=O)[C@H](CC(N)=O)NC(=O)[C@H](CC(N)=O)NC(=O)[C@H](Cc1ccc(O)cc1)NC(=O)[C@H](CCC(=O)O)NC(=O)CNC(=O)[C@H](CO)NC(=O)CNC(=O)[C@H](CCCNC(=N)N)NC(=O)[C@H](CCCNC(=N)N)NC(=O)[C@H](CCCNC(=N)N)NC(=O)[C@H](CCC(N)=O)NC(=O)[C@H](CCCNC(=N)N)NC(=O)[C@H](CCCNC(=N)N)NC(=O)[C@H](CCCCN)NC(=O)[C@H](CCCCN)NC(=O)[C@H](CCCNC(=N)N)NC(=O)CNC(=O)[C@@H](N)Cc1ccc(O)cc1)C(=O)NCC(=O)N[C@@H](CC(N)=O)C(=O)N[C@H](C(=O)N[C@H](C(=O)N[C@@H](CCC(=O)O)C(=O)N[C@@H](C)C(=O)N[C@@H](CC(C)C)C(=O)N[C@@H](Cc1ccccc1)C(=O)N[C@@H](CCC(N)=O)C(=O)O)[C@@H](C)CC)[C@@H](C)O [EQ]	1.83 µM	6.885% and 4.675% and 10.9434%	10.2126% and 12.8194% and 16.4536%	21.5745% and 20.64% and 25.9399%	31.5814% and 30.7778% and 32.9503%	62.8263% and 54.1779% and 55.7124%	86.8541% and 90.3885% and 78.0023%
YGRKKRRQRRRGSGNTIEALFQ [NTQ]	2.28 µM	2.654% and 4.744% and 5.743%	14.83% and 10.2542% and 13.3898%	20.84% and 30.339% and 24.339%	39.17% and 47.6271% and 50.8202%	45.42% and 51.9492% and 59.661%	68.27% and 52.5424% and 61.6949%
CC[C@H](C)[C@H](NC(=O)[C@H](C)NC(=O)[C@H](CO)NC(=O)CNC(=O)[C@H](CO)NC(=O)CNC(=O)[C@H](CCCNC(=N)N)NC(=O)[C@H](CCCNC(=N)N)NC(=O)[C@H](CCCNC(=N)N)NC(=O)[C@H](CCC(N)=O)NC(=O)[C@H](CCCNC(=N)N)NC(=O)[C@H](CCCNC(=N)N)NC(=O)[C@H](CCCCN)NC(=O)[C@H](CCCCN)NC(=O)[C@H](CCCNC(=N)N)NC(=O)CNC(=O)[C@@H](N)Cc1ccc(O)cc1)C(=O)NCC(=O)N[C@@H](CC(N)=O)C(=O)N[C@H](C(=O)N[C@H](C(=O)N[C@@H](CCC(=O)O)C(=O)N[C@@H](C)C(=O)N[C@@H](CC(C)C)C(=O)N[C@@H](Cc1ccccc1)C(=O)N[C@@H](CCC(N)=O)C(=O)O)[C@@H](C)CC)[C@@H](C)O [SAQ]	2.9 µM	3.547% and 2.726% and 6.819%	8.964% and 7.902% and 11.0435%	14.4055% and 11.5364% and 18.402%	27.4779% and 24.0778% and 33.4848%	47.0158% and 47.2468% and 36.2572%	75.1367% and 61.8367% and 63.2191%
CC[C@H](C)[C@H](NC(=O)[C@H](C)NC(=O)[C@H](CO)NC(=O)[C@H](CCCNC(=N)N)NC(=O)CNC(=O)[C@H](CO)NC(=O)CNC(=O)[C@H](CCCNC(=N)N)NC(=O)[C@H](CCCNC(=N)N)NC(=O)[C@H](CCCNC(=N)N)NC(=O)[C@H](CCC(N)=O)NC(=O)[C@H](CCCNC(=N)N)NC(=O)[C@H](CCCNC(=N)N)NC(=O)[C@H](CCCCN)NC(=O)[C@H](CCCCN)NC(=O)[C@H](CCCNC(=N)N)NC(=O)CNC(=O)[C@@H](N)Cc1ccc(O)cc1)C(=O)NCC(=O)N[C@@H](CC(N)=O)C(=O)N[C@H](C(=O)N[C@H](C(=O)N[C@@H](CCC(=O)O)C(=O)N[C@@H](C)C(=O)N[C@@H](CC(C)C)C(=O)N[C@@H](Cc1ccccc1)C(=O)N[C@@H](CCC(N)=O)C(=O)O)[C@@H](C)CC)[C@@H](C)O [RSQ]	2.6 µM	1.471% and 6.588% and 2.826%	11.34% and 21.2746% and 16.4228%	18.633% and 25.8298% and 26.1918%	40.5468% and 36.4575% and 35.2676%	53.4848% and 40.7778% and 47.2122%	58.6022% and 68.9642% and 62.4952%
